Assay results reported in patent publication US20040006784A1, “Methods and compositions for producing plants and microorganisms that express feedback insensitive threonine dehydratase/deaminase” (priority 1997, published 2004).

What was measured:
[1] = target: T1, threonine dehydratase/deaminase (TD) (Arabidopsis thaliana, UniProt Q9ZSS6, R499C/R544H); conditions: extracts from GM11b (omr1/omr1) plants compared with wild type plants; Mourad and King 1995; cited from earlier work
T1 construct: from tissue; host or cells: extracts of Arabidopsis thaliana GM11b (omr1/omr1) plants
T1 sequence (Q9ZSS6 92-592 R499C/R544H): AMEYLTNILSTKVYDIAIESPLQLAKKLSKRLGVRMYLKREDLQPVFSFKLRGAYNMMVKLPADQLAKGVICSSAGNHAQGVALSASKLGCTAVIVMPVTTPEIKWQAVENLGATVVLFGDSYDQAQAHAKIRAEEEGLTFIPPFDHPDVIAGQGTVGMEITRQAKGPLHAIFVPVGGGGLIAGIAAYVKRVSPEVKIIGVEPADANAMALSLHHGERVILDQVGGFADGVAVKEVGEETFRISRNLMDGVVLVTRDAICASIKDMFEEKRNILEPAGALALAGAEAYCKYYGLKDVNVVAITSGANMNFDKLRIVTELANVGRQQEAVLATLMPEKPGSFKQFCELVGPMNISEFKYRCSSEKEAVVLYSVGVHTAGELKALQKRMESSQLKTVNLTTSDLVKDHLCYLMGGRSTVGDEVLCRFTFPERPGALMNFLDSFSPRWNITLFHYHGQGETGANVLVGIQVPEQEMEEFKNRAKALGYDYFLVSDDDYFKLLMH

[2] = system: E. coli prototroph host DH5α; test: Growth of E. coli DH5α on minimal medium supplemented with L-O-methylthreonine (second complementation experiment); format: cell-based
Description: In the second complementation experiment, the E. coli prototroph host DH5α was transformed with pTrc-td23 or pUCK-td23 and plated on minimal medium supplemented with varying concentrations of the toxic analog L-O-methylthreonine. Both of the constructs were able to confer upon DH5α resistance to 30 μM L-O-methylthreonine. […] Therefore omr1 provides a new environmentally friendly selectable marker for genetic transformation of bacteria.

[3] = system: Arabidopsis thaliana Columbia wild type; test: Germination and growth of seedlings in agar medium supplemented with L-O-methylthreonine; format: in vivo; conditions: 0.2 mM L-O-methylthreonine agar medium, T1 seed screen
Description: Using the vacuum infiltration method of Bent et al. (1994), L-O-methylthreonine-sensitive Arabidopsis thaliana Columbia wild type were transformed with pCM35S-omr1. Ten pots, each with 3-4 plants, were transformed and T1 seeds were harvested from the To transformed plants of each pot separately. […] In a crowded plate, it is possible to identify the transformants by looking at the bottom of the plate, the transformants show root growth while the nontransformants will have none. After three weeks of growth in the 0.2 mM L-O-methylthreonine agar medium, each of the 5 positive transformants was transferred to soil, kept separately and allowed to self-fertilize to produce the T2 seed.

[4] = system: T2 seedlings of omr1 transgenic Arabidopsis; test: T2 seedlings of omr1 transformants on L-O-methylthreonine agar medium; format: in vivo, Arabidopsis thaliana; conditions: 0.2 mM L-O-methylthreonine agar medium, 50 T2 seeds/transformant, each of 5 plates
Description: The T2 seed was harvested from each of the 5 positive T1 transformants and 50 T2 seeds/transformant were planted in a separate petri plate containing 0.2 mM L-O-methylthreonine agar medium. […] This slightly truncated precursor mutant TD was able to translocate to the chloroplast and confer upon transgenic plants resistance to OMT.

[5] = system: Arabidopsis thaliana Columbia wild type; conditions: agar medium; Mourad and King, 1995; cited from earlier work
manmalian cell cultures = conditions: by inhibiting incorporation of Ile into proteins; Rabinovitz et al. 1955; cited from earlier work

Structure (SMILES)	resistance of TD activity to feedback inhibition by Ile, GM11b extracts versus wild type extracts [1]	L-O-methylthreonine concentration to which resistance was conferred ([2]; DH5α transformed with pTrc-td23 or pUCK-td23 (omr1), minimal medium)	growth of bacterial colonies on plates with L-O-methylthreonine ([2]; untransformed DH5α, minimal medium supplemented with varying concentrations of L-O-methylthreonine)	appearance of nontransformed seedlings after emergence of the cotyledons [3]	T2 seedlings resistant to L-O-methylthreonine [4]	concentration known to completely inhibit the growth of wild type seedlings beyond the cotyledonous stage [5]	effect on growth of mammalian cell cultures (manmalian cell cultures)
CC[C@H](C)[C@H](N)C(=O)O [Ile, isoleucine]	about 50 fold						
CO[C@H](C)[C@H](N)C(=O)O [L-O-methylthreonine]		30 µM	No bacterial colonies grew	completely bleached	≥ 75%	0.2 mM	inhibits growth
